This is an account of results in patent US20170312305A1, “PHARMACEUTICAL EXTRACTS AND USES THEREOF” (UNIVERSITY OF SALFORD ENTERPRISES LIMITED, priority 2014, published 2017).

Structures are written as SMILES.

One assay deals with MDA-468 cells. Briefly: MTT cell viability assay, MDA-468 breast cancer cells. Type of assay: cell-based. The conditions noted are these: MDA-468, 96 hours, cisplatinum 1-25 μM. How it is done: (§1) The breast cancer cell MDA 468 and MDANQ01, K562 and human lymphoblastic cell line (MOLT-4) were grown in RPMI 1640 medium supplemented with 1% L-glutamine, 1% of 100 Units/ml penicillin and 0.1 mg/ml streptomycin and 10% inactivated FCS. While the […] cell line HeLa and fibroblast cell line 3T3 were grown in DMEM medium supplemented with 20% inactivated FCS, 1% L-glutamine, 1% of 100 units/ml penicillin & 0.1 mg/ml streptomycin. All cell lines were maintained in a humidified incubator with an atmosphere of 95% air and 5% CO2 at 37° C.
(§2) Cell viability was determined by the MTT (3-(4,5 dimethylthiazol2-yl)-2,5 diphenyltetrazolium bromide) test method. […] The metabolic activity of each well was determined by the (MTT) assay and compared to those of untreated cells. […] Cell viability was determined based on mitochondrial conversion of 3[4,5-dimethylthiazol-2-yl] […] The plates were gently agitated until the colour reaction was uniform and the absorbance was measured at 570 nm using a multi-well plate reader, Sigma Plot 2000 software was used for data analysis. The cell viability effects from exposure of cells to each concentration of crude whelk GAGs, commercial GAGs and cisplatinum were analysed as percentages of the control cell absorbance, which were obtained from control wells plated in RPMI, 1% L-glutamate and 10% FCS media. […]
(In general: Formazan colour is commonly taken as a measure of viable cells.)

Another assay has as its system MDANQ01 cells. Briefly: MTT cell viability assay, MDANQ01 breast cancer cells. Type of assay: cell-based. As to conditions: MDANQ01, 96 hours, cisplatinum 1-25 μM. The method, then:
as §1, §2

One may read the IC50 as the point on the concentration scale where inhibition reaches its midpoint. Regarding `N.N.[Cl][Pt][Cl]` [cisplatinum], the IC50 with MDA-468 cells is 880 nM; with MDANQ01 cells, 630 nM.
